Results from US11352359B2, “PI3K protein kinase inhibitors” (Rhizen Pharmaceuticals SA, priority 2013, dated 2022).

Tests used:
PI3Kβ = PI3Kβ (Homo sapiens, UniProt P42338); assay: Fluorescent determination of PI3Kinase enzyme activity (HTRF), PI3Kβ; assay type: biochemical
Text: (§1) Fluorescent Determination of PI3Kinase Enzyme Activity
(§2) Phosphoinositide 3 kinases (PI3K) belong to a class of Lipid kinases that play a critical role in the regulation of several key cellular processes. The PI3K are capable of phosphorylating the 3-hydroxy position of phosphoinositols thereby generating second messengers involved in downstream signalling events. The homogenous time resolved fluorescence (HTRF) assay allows detection of 3,4,5-triphosphate (PIP3) formed as a result of phosphorylation of phosphotidylinositol 4,5-biphosphate (PIP2) by PI3K isoforms such as α, […], γ or δ.
(§3) PI3K isoform activity for α, β, γ or δ is to be determined using a PI3K human HTRF™ Assay Kit (Millipore, Billerica, Mass.) with modifications. All incubations were carried out at room temperature. Briefly, 0.5 μl of 40× inhibitor (in 100% DMSO) or 100% DMSO were added to each well of a 384-well black plate (Greiner Bio-One, Monroe, N.C.) containing 14.5 μl 1× reaction buffer/PIP2 (10 mM MgCl2, 5 mM DTT, 1.38 μM PIP2) mix with or without enzyme and incubated for 10 min. After the initial incubation, 5 μl/well of 400 μM ATP was added and incubated for an additional 30 minutes. Reaction was terminated by adding 5 μl/well stop solution (Millipore, Billerica, Mass.). Five microliters of detection mix (Millipore, Billerica, Mass.) were then added to each well and was incubated for 6-18 h in the dark. HRTF ratio was measured on a microplate reader (BMG Labtech, Germany) at an excitation wavelength of 337 nm and emission wavelengths of 665 and 620 nm with an integration time of 400 μsec. Data was analyzed using Graphpad Prism (Graphpad software; San Diego Calif.) for IC50 determination).

PI3Kα = PI3Kα (Homo sapiens, UniProt P42336); assay: Fluorescent determination of PI3Kinase enzyme activity (HTRF), PI3Kα; assay type: biochemical
Text: as §1, §2, §3

PI3Kδ = PI3Kδ (Homo sapiens, UniProt O00329); assay: Fluorescent determination of PI3Kinase enzyme activity (HTRF), PI3Kδ; assay type: biochemical; settings: for inhibition at 0.1 µM: 100 nM (underlined values: 300 nM)
Text: as §1, §2, §3

PI3Kγ = PI3Kγ (Homo sapiens, UniProt P48736); assay: Fluorescent determination of PI3Kinase enzyme activity (HTRF), PI3Kγ; assay type: biochemical; settings: for inhibition at 0.1 µM: 100 nM (underlined values: 300 nM)
Text: as §1, §2, §3

Chain of PI3Kδ (O00329 whole entry): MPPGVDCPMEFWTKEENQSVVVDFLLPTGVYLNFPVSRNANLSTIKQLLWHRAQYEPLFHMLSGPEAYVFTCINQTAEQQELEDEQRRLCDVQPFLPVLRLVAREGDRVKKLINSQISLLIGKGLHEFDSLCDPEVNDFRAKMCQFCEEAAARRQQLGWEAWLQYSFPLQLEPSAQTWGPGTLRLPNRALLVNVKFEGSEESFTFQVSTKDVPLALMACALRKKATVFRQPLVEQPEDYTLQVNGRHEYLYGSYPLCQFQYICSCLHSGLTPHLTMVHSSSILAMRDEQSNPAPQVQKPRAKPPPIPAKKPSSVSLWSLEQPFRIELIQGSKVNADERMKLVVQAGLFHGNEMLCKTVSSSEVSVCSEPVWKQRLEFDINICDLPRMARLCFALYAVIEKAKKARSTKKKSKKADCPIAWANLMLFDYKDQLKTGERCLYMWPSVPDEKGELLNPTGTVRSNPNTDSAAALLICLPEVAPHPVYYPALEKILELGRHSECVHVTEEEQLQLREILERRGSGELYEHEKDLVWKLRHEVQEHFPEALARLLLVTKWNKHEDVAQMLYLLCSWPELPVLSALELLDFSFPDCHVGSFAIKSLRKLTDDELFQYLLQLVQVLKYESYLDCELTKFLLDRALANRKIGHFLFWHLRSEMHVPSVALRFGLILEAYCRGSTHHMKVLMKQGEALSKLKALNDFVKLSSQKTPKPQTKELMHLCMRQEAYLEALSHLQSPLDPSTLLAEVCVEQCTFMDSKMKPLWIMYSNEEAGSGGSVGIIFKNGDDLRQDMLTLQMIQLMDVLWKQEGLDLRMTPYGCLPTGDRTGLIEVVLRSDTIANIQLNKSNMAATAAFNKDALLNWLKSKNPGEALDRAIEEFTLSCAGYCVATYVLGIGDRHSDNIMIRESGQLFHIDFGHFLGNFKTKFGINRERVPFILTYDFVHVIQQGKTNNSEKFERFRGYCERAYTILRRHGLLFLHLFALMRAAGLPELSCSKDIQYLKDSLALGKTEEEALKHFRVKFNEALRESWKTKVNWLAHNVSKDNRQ
Chain of PI3Kδ (P27986 whole entry partner): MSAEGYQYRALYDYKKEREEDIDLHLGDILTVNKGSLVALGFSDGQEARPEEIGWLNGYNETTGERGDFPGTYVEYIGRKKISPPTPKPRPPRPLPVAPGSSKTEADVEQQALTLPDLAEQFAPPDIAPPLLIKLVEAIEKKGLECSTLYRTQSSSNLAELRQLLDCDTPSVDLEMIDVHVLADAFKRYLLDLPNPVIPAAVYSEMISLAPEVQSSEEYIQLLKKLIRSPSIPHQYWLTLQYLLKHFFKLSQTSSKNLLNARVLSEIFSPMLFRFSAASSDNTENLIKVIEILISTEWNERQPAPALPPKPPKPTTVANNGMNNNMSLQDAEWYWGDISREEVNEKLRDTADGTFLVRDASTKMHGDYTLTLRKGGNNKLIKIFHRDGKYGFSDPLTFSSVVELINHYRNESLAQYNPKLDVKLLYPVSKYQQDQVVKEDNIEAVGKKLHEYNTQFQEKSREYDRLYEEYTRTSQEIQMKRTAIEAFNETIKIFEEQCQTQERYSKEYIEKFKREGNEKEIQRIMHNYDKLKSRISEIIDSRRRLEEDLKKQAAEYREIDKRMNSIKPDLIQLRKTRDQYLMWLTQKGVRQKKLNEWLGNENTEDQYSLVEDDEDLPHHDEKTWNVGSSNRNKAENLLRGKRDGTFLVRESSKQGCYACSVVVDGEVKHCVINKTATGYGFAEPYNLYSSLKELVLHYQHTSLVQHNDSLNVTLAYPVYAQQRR
Chain of PI3Kα (P42336 whole entry): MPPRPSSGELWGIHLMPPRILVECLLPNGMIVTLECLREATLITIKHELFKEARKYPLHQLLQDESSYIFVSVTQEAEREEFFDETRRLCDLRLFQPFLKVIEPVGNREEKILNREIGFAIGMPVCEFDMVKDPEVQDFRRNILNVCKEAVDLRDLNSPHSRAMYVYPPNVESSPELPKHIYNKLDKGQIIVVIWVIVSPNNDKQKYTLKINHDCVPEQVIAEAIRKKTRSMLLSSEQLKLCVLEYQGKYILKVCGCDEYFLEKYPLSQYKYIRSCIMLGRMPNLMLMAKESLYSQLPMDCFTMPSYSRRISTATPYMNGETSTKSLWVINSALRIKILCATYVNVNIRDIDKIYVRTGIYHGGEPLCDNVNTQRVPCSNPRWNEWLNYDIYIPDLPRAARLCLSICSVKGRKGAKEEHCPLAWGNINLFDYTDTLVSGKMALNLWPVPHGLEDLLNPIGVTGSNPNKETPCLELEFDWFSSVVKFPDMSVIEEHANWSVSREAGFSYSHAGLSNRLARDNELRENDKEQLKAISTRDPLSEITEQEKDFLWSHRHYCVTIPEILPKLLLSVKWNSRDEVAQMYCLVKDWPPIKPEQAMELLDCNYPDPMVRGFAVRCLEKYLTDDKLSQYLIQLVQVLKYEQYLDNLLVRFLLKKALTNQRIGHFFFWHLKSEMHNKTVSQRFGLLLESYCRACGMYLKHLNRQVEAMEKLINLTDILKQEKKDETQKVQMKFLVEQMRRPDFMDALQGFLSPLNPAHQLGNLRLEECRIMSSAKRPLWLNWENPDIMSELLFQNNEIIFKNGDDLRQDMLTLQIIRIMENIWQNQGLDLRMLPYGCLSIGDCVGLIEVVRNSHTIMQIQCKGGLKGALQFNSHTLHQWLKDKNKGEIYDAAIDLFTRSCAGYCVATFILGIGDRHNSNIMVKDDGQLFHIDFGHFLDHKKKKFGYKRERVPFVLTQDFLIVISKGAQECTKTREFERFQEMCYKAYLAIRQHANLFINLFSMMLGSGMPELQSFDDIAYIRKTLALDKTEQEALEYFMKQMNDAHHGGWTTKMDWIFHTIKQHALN
Chain of PI3Kα (P27986 whole entry partner): as the sequence (P27986 whole entry partner) above
Chain of PI3Kγ (P48736 whole entry): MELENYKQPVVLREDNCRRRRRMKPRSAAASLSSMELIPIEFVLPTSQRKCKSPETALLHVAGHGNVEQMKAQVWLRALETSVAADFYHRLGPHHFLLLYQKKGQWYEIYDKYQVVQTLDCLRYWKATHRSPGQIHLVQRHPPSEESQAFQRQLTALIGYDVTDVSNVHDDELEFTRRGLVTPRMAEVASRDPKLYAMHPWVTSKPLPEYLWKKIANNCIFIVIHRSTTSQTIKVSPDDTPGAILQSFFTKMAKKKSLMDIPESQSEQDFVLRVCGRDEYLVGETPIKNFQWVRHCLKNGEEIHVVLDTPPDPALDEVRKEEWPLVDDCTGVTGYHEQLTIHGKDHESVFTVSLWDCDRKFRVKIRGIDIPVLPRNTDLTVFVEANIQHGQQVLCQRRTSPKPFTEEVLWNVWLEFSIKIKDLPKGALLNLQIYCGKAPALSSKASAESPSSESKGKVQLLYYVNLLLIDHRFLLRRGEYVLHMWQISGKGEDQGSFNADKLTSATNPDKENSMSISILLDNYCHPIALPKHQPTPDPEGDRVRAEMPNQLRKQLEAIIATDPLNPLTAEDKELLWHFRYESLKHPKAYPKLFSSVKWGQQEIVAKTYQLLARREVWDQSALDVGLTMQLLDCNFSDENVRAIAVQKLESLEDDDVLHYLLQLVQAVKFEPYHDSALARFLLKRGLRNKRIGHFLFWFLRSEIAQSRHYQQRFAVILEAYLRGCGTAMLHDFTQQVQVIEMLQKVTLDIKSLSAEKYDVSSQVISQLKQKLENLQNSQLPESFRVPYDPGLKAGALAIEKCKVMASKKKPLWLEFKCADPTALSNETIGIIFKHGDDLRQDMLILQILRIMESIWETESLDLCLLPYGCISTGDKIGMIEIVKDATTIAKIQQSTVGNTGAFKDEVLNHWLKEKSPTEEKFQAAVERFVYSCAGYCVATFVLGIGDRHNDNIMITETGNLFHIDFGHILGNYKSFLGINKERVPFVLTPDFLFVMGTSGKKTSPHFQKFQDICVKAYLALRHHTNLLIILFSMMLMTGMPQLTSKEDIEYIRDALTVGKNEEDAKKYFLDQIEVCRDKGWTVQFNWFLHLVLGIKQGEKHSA
Chain of PI3Kβ (P42338 whole entry): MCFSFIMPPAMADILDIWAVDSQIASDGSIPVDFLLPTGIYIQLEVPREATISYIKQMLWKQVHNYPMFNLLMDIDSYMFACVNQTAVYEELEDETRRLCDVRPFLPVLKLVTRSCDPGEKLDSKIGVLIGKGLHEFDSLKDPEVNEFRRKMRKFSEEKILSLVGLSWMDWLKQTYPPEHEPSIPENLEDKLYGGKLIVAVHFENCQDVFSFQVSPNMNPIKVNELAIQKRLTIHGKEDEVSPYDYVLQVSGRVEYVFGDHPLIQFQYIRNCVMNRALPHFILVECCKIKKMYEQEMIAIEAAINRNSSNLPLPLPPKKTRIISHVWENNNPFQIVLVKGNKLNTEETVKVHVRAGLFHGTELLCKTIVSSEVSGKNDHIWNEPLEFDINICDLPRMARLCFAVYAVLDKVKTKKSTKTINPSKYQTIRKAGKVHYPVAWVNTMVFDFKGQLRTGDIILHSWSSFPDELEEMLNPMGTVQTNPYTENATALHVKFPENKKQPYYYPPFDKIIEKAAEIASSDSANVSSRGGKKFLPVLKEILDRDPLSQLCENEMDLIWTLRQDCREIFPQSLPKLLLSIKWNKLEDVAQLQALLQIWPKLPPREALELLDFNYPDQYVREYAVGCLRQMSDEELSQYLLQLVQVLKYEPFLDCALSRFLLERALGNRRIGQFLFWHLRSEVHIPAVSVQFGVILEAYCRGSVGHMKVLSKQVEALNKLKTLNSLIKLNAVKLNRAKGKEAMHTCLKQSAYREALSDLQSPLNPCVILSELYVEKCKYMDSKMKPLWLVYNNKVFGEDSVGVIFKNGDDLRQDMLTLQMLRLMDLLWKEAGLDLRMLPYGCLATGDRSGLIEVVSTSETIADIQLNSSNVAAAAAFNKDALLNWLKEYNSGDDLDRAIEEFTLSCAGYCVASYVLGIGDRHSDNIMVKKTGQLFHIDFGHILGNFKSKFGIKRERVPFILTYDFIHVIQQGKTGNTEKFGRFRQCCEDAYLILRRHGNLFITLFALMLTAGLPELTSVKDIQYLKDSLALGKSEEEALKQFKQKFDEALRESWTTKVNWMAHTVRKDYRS
Chain of PI3Kβ (P27986 whole entry partner): as the sequence (P27986 whole entry partner) above

SMILES | inhibition at 1 µM (PI3Kβ) [%] | inhibition at 1 µM (PI3Kα) [%] | inhibition at 0.1 µM (PI3Kδ) [%] | inhibition at 0.1 µM (PI3Kγ) [%] | melting point [°C] | IC50 (PI3Kδ) [nM] | IC50 (PI3Kγ) [nM]
Cc1n[nH]c2cc(-c3nn(C(C)c4cc5cccc(Cl)c5c(=O)n4-c4ccccc4)c4ncnc(N)c34)ccc12 (centres unmarked) [Example 21, 3-(1-(4-amino-3-(3-methyl-1H-indazol-6-yl)-1H-pyrazolo[3,4-d]pyrimidin-1-yl)ethyl)-8-chloro-2-phenylisoquinolin-1(2H)-one] | 60 to 80 | 20 to 40 | 80 to 100 | 60 to 80 | 289 to 291 |  | 
CC(c1nc2ccccc2c(=O)n1-c1ccccc1)n1nc(-c2ccc(O)c(F)c2)c2c(N)ncnc21 (centres unmarked) [Example 8, 2-(1-(4-amino-3-(3-fluoro-4-hydroxyphenyl)-1H-pyrazolo[3,4-d]pyrimidin-1-yl)ethyl)-3-phenylquinazolin-4(3H)-one] | 20 to 40 | 0 to 10 | 20 to 40 | 0 to 20 | 230 to 233 |  | 
COc1ccc(-c2nn([C@H](C)c3cc4cccc(Cl)c4c(=O)n3-c3ccccc3)c3ncnc(N)c23)cc1NS(C)(=O)=O [Example 20b, (−)—N-(5-(4-amino-1-(1-(8-chloro-1-oxo-2-phenyl-1,2-dihydroisoquinolin-3-yl)ethyl)-1H-pyrazolo[3,4-d]pyrimidin-3-yl)-2-methoxyphenyl)methanesulfonamide] | 20 to 40 | 0 to 10 | 20 to 40 | 0 to 20 | 180 to 183 |  | 
CC(C)Oc1ccc(-c2nn([C@H](C)c3nc4ccccc4c(=O)n3-c3ccccc3)c3ncnc(N)c23)cc1F [Example 6b, (−)-2-(1-(4-amino-3-(3-fluoro-4-isopropoxyphenyl)-1H-pyrazolo[3,4-d]pyrimidin-1-yl)ethyl)-3-phenylquinazolin-4(3H)-one] | 20 to 40 | 0 to 10 | 20 to 40 | 0 to 20 | 192 to 195 |  | 
Cc1n[nH]c2cc(-c3nn([C@H](C)c4cc5cccc(Cl)c5c(=O)n4-c4ccccc4)c4ncnc(N)c34)ccc12 [Example 21b, (−)-3-(1-(4-amino-3-(3-methyl-1H-indazol-6-yl)-1H-pyrazolo[3,4-d]pyrimidin-1-yl)ethyl)-8-chloro-2-phenylisoquinolin-1(2H)-one] | 10 to 20 | 0 to 10 | 80 to 100 | 40 to 60 | 225 to 227 |  | 
COc1ccc(-c2nn([C@H](C)c3cc4ccccc4c(=O)n3-c3ccccc3)c3ncnc(N)c23)cc1NS(C)(=O)=O [Example 9b, (−)—N-(5-(4-amino-1-(1-(1-oxo-2-phenyl-1,2-dihydroisoquinolin-3-yl)ethyl)-1H-pyrazolo[3,4-d]pyrimidin-3-yl)-2-methoxyphenyl)methanesulfonamide] | 10 to 20 | 0 to 10 | 40 to 60 | 0 to 20 | 158 to 162 |  | 
CC(C)Oc1ccc(-c2nn([C@H](C)c3cc4ccccc4c(=O)n3-c3ccccc3)c3ncnc(N)c23)cc1F [Example 5b, (−)-3-(1-(4-amino-3-(3-fluoro-4-isopropoxyphenyl)-1H-pyrazolo[3,4-d]pyrimidin-1-yl)ethyl)-2-phenylisoquinolin-1(2H)-one] | 60 to 80 | 0 to 10 | 40 to 60 | 0 to 20 | 232 to 235 |  | 

The remaining lines, values ahead:

inhibition at 1 µM (PI3Kβ) [%] | inhibition at 1 µM (PI3Kα) [%] | inhibition at 0.1 µM (PI3Kδ) [%] | inhibition at 0.1 µM (PI3Kγ) [%] | melting point [°C] | IC50 (PI3Kδ) [nM] | IC50 (PI3Kγ) [nM] | SMILES
20 to 40 | 0 to 10 | 40 to 60 | 20 to 40 | 230 to 232 |  |  | C[C@H](c1cc2ccccc2c(=O)n1-c1ccccc1)n1nc(-c2ccc(O)c(F)c2)c2c(N)ncnc21 [Example 7b, (−)-3-(1-(4-amino-3-(3-fluoro-4-hydroxyphenyl)-1H-pyrazolo[3,4-d]pyrimidin-1-yl)ethyl)-2-phenylisoquinolin-1(2H)-one]
10 to 20 | 0 to 10 | 20 to 40 | 20 to 40 | 231 to 232 |  |  | CC(c1nc2ccc(F)cc2c(=O)n1-c1ccccc1)n1nc(-c2ccc(O)c(F)c2)c2c(N)ncnc21 (centres unmarked) [Example 13, 2-(1-(4-amino-3-(3-fluoro-4-hydroxyphenyl)-1H-pyrazolo[3,4-d]pyrimidin-1-yl)ethyl)-6-fluoro-3-phenylquinazolin-4(3H)-one]
0 to 10 | 0 to 10 | 20 to 40 | 0 to 20 | 258 to 260 |  |  | C[C@H](c1cc2cccc(F)c2c(=O)n1-c1ccccc1)n1nc(-c2ccc(O)c(F)c2)c2c(N)ncnc21 [Example 15b, (−)-3-(1-(4-amino-3-(3-fluoro-4-hydroxyphenyl)-1H-pyrazolo[3,4-d]pyrimidin-1-yl)ethyl)-8-fluoro-2-phenylisoquinolin-1(2H)-one]
20 to 40 | 0 to 10 | 60 to 80 | 20 to 40 | 215 to 219 |  |  | C[C@H](c1cc2cccc(Cl)c2c(=O)n1-c1ccccc1)n1nc(-c2ccc(O)c(F)c2)c2c(N)ncnc21 [Example 14b, (−)-3-(1-(4-amino-3-(3-fluoro-4-hydroxyphenyl)-1H-pyrazolo[3,4-d]pyrimidin-1-yl)ethyl)-8-chloro-2-phenylisoquinolin-1(2H)-one]
20 to 40 | 0 to 10 | 80 to 100 | 80 to 100 | 181 to 185 | 45.6 | 47.3 | C[C@H](c1cc2cccc(Cl)c2c(=O)n1-c1ccccc1)n1nc(-c2ccc(OC(F)F)c(F)c2)c2c(N)ncnc21 [Example 17b, (−)-3-(1-(4-amino-3-(4-(difluoromethoxy)-3-fluorophenyl)-1H-pyrazolo[3,4-d]pyrimidin-1-yl)ethyl)-8-chloro-2-phenylisoquinolin-1(2H)-one]
60 to 80 | 0 to 10 | 40 to 60 | 40 to 60 | 212 to 214 |  |  | CC(c1nc2cccc(F)c2c(=O)n1-c1ccccc1)n1nc(-c2ccc(O)c(F)c2)c2c(N)ncnc21 (centres unmarked) [Example 16, 2-(1-(4-amino-3-(3-fluoro-4-hydroxyphenyl)-1H-pyrazolo[3,4-d]pyrimidin-1-yl)ethyl)-5-fluoro-3-phenylquinazolin-4(3H)-one]
0 to 10 | 0 to 10 | 20 to 40 | 0 to 20 | 269 to 271 |  |  | C[C@H](c1nc2cccc(F)c2c(=O)n1-c1ccccc1)n1nc(-c2ccc(O)c(F)c2)c2c(N)ncnc21 [Example 16b, (−)-2-(1-(4-amino-3-(3-fluoro-4-hydroxyphenyl)-1H-pyrazolo[3,4-d]pyrimidin-1-yl)ethyl)-5-fluoro-3-phenylquinazolin-4(3H)-one]
20 to 40 | 0 to 10 | 40 to 60 | 40 to 60 | 228 to 229 |  |  | CC(c1cc2cccc(F)c2c(=O)n1-c1ccccc1)n1nc(-c2ccc(O)c(F)c2)c2c(N)ncnc21 (centres unmarked) [Example 15, 3-(1-(4-amino-3-(3-fluoro-4-hydroxyphenyl)-1H-pyrazolo[3,4-d]pyrimidin-1-yl)ethyl)-8-fluoro-2-phenylisoquinolin-1(2H)-one]
